Assay results published in publication PMC6641592, “Deciphering Design Principles of Förster Resonance Energy Transfer-Based Protease Substrates: Thermolysin-Like Protease from Geobacillus stearothermophilus as a Test Case” (ACS Omega, 2018).
Read-outs that look alike come from different tables or passages of the source. AF647 = Alexa Fluor 647 (maleimide); CF = 5,6-carboxyfluorescein; Cy5 = Cy5 (maleimide)

Key:
TLP-ste (C288L/N181C) = TLP-ste (C288L/N181C) (Geobacillus stearothermophilus, UniProt P06874, C520L/N413C); settings: for Km / vmax: Michaelis-Menten fit, mean ± SD, triplicate; for vmax: MOPS pH 7.4, 10% DMSO; for kcat/KM: calculated from kcat and KM; for increase of kcat with peptide length: 8aa substrate relative to 4aa substrate with the same acceptor
[1] = after complete hydrolysis with 1 nM TLP-ste, >16 h room temperature; MOPS buffer, 10% DMSO; λex 450/λem 520 nm
TLP-ste = TLP-ste (Geobacillus stearothermophilus, UniProt P06874, C520L/N413C); settings: product 0–20 μM; substrates 8aa-Cy5 and 8aa-AF647 0–2 μM; triplicate
[2] = system: CC(C)C[C@H](NC(=O)CNC(=O)C=Cc1ccco1)C(N)=O; assay: purified protein, by the assay type; settings: other: enzyme preparation TLP-ste (C288L/N181C)
[3] = molecular target: thermolysin-like protease (TLP-ste) from Geobacillus stearothermophilus, C288L/N181C (Geobacillus stearothermophilus)
[4] = corrected for IFE and FRET efficiency, 1 nM TLP-ste, 20 mM MOPS pH 7.4, 5 mM CaCl2, 10% DMSO, 30 °C, donor λex 490/λem 520 nm
[5] = corrected for IFE and FRET efficiency, 1 nM TLP-ste, 30 °C
[6] = corrected for IFE and FRET efficiency, vmax divided by enzyme concentration (1 nM)
[7] = correction: FRET efficiency only
[8] = correction: FRET efficiency only, vmax divided by enzyme concentration
[9] = correction: IFE only, vmax divided by enzyme concentration
[10] = correction: none, vmax divided by enzyme concentration

Molecule | Km (TLP-ste (C288L/N181C); [4]) [µM] | vmax (TLP-ste (C288L/N181C); [5]) | kcat (TLP-ste (C288L/N181C); [6]) [s^–1] | Km (TLP-ste (C288L/N181C); [7]) [µM] | kcat/KM (TLP-ste (C288L/N181C); [7]) [M⁻¹ s⁻¹] | kcat (TLP-ste (C288L/N181C); [8]) [s⁻¹] | kcat/KM (TLP-ste (C288L/N181C); correction: IFE only) [M⁻¹ s⁻¹] | kcat (TLP-ste (C288L/N181C); [9]) [s⁻¹] | Km (TLP-ste (C288L/N181C); correction: none) [µM] | kcat/KM (TLP-ste (C288L/N181C); correction: none) [M⁻¹ s⁻¹] | kcat (TLP-ste (C288L/N181C); [10]) [s⁻¹] | KM of hydrolysis by 1 nM TLP-ste (Michaelis-Menten fit, donor fluorescence, corrected for IFE and FRET efficiency; 30 °C, MOPS pH 7.4, 10% DMSO) [3] [μM] | further results
CF-PAGLAC(AF674)-NH2 [4aa-AF647] | 53.3 ± 33.9 | 7.0 ± 3.8 ×10^–4 μM s^–1 | 0.70 | 14.3 ± 4 | 14000 | 0.20 | 12900 | 0.69 | 14.3 ± 4 | 13200 | 0.19 |  | 
CF-PAGLAC(Cy5)-NH2 [4aa-Cy5] | 2.4 ± 1.9 | 3.7 ± 1.6 ×10^–4 μM s^–1 | 0.37 | 1.6 ± 1.3 | 175000 | 0.28 | 145800 | 0.35 | 1.6 ± 1.3 | 162500 | 0.26 |  | concentration of hydrolyzed peptide above which fluorescence plateaus or decreases (cleaved products form aggregates) [1]: 2500 nM
CF-PSVAGLAGGC(AF647)-NH2 [8aa-AF647] | 77.6 ± 38.5 | 57.0 ± 27.0 ×10^–4 μM s^–1 | 5.70 | 17 ± 4.6 | 75900 | 1.29 | 70500 | 5.47 | 17 ± 4.6 | 72900 | 1.24 |  | increase of kcat with peptide length (TLP-ste (C288L/N181C)): 8 fold
CF-PSVAGLAGGC(Cy5)-NH2 [8aa-Cy5] | 17.6 ± 11.1 | 78.2 ± 48.2 ×10^–4 μM s^–1 | 7.82 | 8.2 ± 3.9 | 454900 | 3.73 | 426100 | 7.50 | 8.2 ± 3.9 | 436600 | 3.58 |  | increase of kcat with peptide length (TLP-ste (C288L/N181C)): 21 fold
CF-PVAGLAGC(Cy5)-NH2 [6aa-Cy5] | 11.6 ± 13 | 29.6 ± 26.6 ×10^–4 μM s^–1 | 2.96 | 6.9 ± 6.6 | 271000 | 1.87 | 247400 | 2.87 | 6.9 ± 6.6 | 262300 | 1.81 |  | concentration of hydrolyzed peptide above which fluorescence plateaus or decreases (cleaved products form aggregates) [1]: 2500 nM
H-LAGGC(AF647)-NH2 [AF647-carrying product] |  |  |  |  |  |  |  |  |  |  |  |  | relative activity of TLP-ste in the presence of product (TLP-ste): relative activity decreases
TLP-ste (C288L/N181C) (Geobacillus stearothermophilus; C520L/N413C) |  |  |  |  |  |  |  |  |  |  |  |  | Km [2]: 7000 µM; kcat [2]: 14 s^–1
{CF}-PAGLAC(Cy5)-NH2 [4aa-Cy5, CF-PAGLAC(Cy5)-NH2] |  |  |  |  |  |  |  |  |  |  |  | 2.4 | 
{CF}-PSVAGLAGGC(AF647)-NH2 [8aa-AF647, CF-…(AF647)-NH2] |  |  |  |  |  |  |  |  |  |  |  | 77.6 | 
{CF}-PVAGLAGC(Cy5)-NH2 [6aa-Cy5, CF-PVAGLAGC(Cy5)-NH2] |  |  |  |  |  |  |  |  |  |  |  | 11.6 | 
{CF}-PSVAGLAGGC(Cy5)-NH2 [8aa-Cy5, CF-…(Cy5)-NH2] |  |  |  |  |  |  |  |  |  |  |  | 17.6 | 
{CF}-PAGLAC(AF647)-NH2 [4aa-AF647, CF-PAGLAC(AF647)-NH2] |  |  |  |  |  |  |  |  |  |  |  | 53.3 | 
